Legend:
Experiment in all cases: relative viability (nuclei count vs DMSO), 5 days (fraction); higher = more cells survive
Seliciclib + Alpelisib = compound: CC[C@H](CO)Nc1nc(NCc2ccccc2)c2ncn(C(C)C)c2n1 [Seliciclib] + Cc1nc(NC(=O)N2CCC[C@H]2C(N)=O)sc1-c1ccnc(C(C)(C)C(F)(F)F)c1 [Alpelisib] (partner 2 µM)
In short: (§1)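 After 5 days of treatment, lung cancer cells in 1536-well plates were fixed and stained in a single step (final 0.05% Triton X-100, 1% formaldehyde, 1 ug/ml Hoechst) and their nuclei counted on 4× images. Treatment had been applied by pin tool the day after seeding as one drug alone or as a fixed anchor-drug dose with five library-drug doses (not always all listed) in √10 steps. Relative viability is the nuclei count of treated wells divided by that of vehicle wells, and values are medians of duplicate plates.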

Seliciclib + Linsitinib = compound: CC[C@H](CO)Nc1nc(NCc2ccccc2)c2ncn(C(C)C)c2n1 [Seliciclib] + C[C@]1(O)C[C@@H](c2nc(-c3ccc4ccc(-c5ccccc5)nc4c3)c3c(N)nccn32)C1 [Linsitinib] (partner 1 µM)
In short: as §1

Seliciclib + Vorinostat = compound: CC[C@H](CO)Nc1nc(NCc2ccccc2)c2ncn(C(C)C)c2n1 [Seliciclib] + O=C(CCCCCCC(=O)Nc1ccccc1)NO [Vorinostat] (partner 1 µM)
In short: as §1

Seliciclib + Navitoclax = compound: CC[C@H](CO)Nc1nc(NCc2ccccc2)c2ncn(C(C)C)c2n1 [Seliciclib] + CC1(C)CCC(c2ccc(Cl)cc2)=C(CN2CCN(c3ccc(C(=O)NS(=O)(=O)c4ccc(N[C@H](CCN5CCOCC5)CSc5ccccc5)c(S(=O)(=O)C(F)(F)F)c4)cc3)CC2)C1 [Navitoclax] (partner 0.5 µM)
In short: as §1

Cell Line	relative viability (Seliciclib + Alpelisib; first compound 0.08 µM)	relative viability (Seliciclib + Alpelisib; first compound 0.253 µM)	relative viability (Seliciclib + Alpelisib; first compound 0.8 µM)	relative viability (Seliciclib + Alpelisib; first compound 8 µM)	relative viability (Seliciclib + Linsitinib; first compound 0.08 µM)	relative viability (Seliciclib + Linsitinib; first compound 0.253 µM)	relative viability (Seliciclib + Linsitinib; first compound 0.8 µM)	relative viability (Seliciclib + Linsitinib; first compound 8 µM)	relative viability (Seliciclib + Vorinostat; first compound 0.08 µM)	relative viability (Seliciclib + Vorinostat; first compound 0.253 µM)	relative viability (Seliciclib + Vorinostat; first compound 0.8 µM)	relative viability (Seliciclib + Vorinostat; first compound 2.53 µM)	relative viability (Seliciclib + Vorinostat; first compound 8 µM)	relative viability (Seliciclib + Navitoclax; first compound 0.08 µM)	relative viability (Seliciclib + Navitoclax; first compound 0.253 µM)	relative viability (Seliciclib + Navitoclax; first compound 0.8 µM)	relative viability (Seliciclib + Navitoclax; first compound 8 µM)	relative viability (Seliciclib + Alpelisib; first compound 2.53 µM)	relative viability (Seliciclib + Linsitinib; first compound 2.53 µM)	relative viability (Seliciclib + Navitoclax; first compound 2.53 µM)
LCLC-97TM1	0.243	0.308	0.382	0.23	0.162	0.181	0.205	0.18	0.803	0.706	0.82	0.106	0.222	0.324	0.462	0.414	0.223			
HARA	0.892	0.911	0.747	0.776	0.978	1.02	0.943	1.01	0.555	0.518	0.588	0.381	0.487	1.13	1.23	1.11	1.07	0.855	1.1	1.16
HCC-78	0.375	0.358	0.329	0.339	0.478	0.558	0.49	0.404	0.393	0.518	0.389	0.396	0.32	0.73	0.969	0.738	0.557	0.285	0.596	0.703
NCI-H1666	1.04	0.985	0.846	0.516	0.769	0.862	0.662	0.514	1.01	1	0.978	1.01	0.749	0.951	1.05	0.909	0.512	0.923	0.875	1.06
NCI-H2347	1.05	1.04	0.757	0.805	1.05	0.995	0.849	0.922	0.595	0.656	0.443	0.566	0.432	0.763	0.801	0.73	0.568	1.03	1	0.859
NCI-H2342									0.792	0.753	0.706	0.663	0.705							
NCI-H838	0.971	0.853	0.884	0.94	0.933	0.864	0.943	0.966	0.649	0.683	0.666	0.595	0.342	1.11	1.03	1.2	0.917	1.14	1.07	1.26
NCI-H2023	0.548	0.542	0.523	0.531	0.642	0.574	0.633	0.572	0.641	0.736	0.649	0.5	0.43	0.895	0.853	0.967	0.891	0.58	0.746	0.949
201T	1.01	1.02	0.997	0.966	1.04	1.07	0.994	0.982	0.967	1.07	0.904	0.637	0.906	1.18	1.17	1.2	1.13	0.997	1.05	1.2
NCI-H1915	1.05	1.1	1.04	0.875	1.11	1.14	1.14	0.885	0.499	0.532	0.611	0.492	0.421	0.776	0.779	0.759	0.618	1.04	1.12	0.8
NCI-H2009	1.14	1.31	1.15	1.23	1.24	1.16	1.09	1.19	0.742	0.862	0.753	0.687	0.671	1.14	1.17	1.13	1.08	1.14	1.19	1.2
BEN	1.13		0.844	0.862	1.16		0.852	0.786	0.543	0.533	0.55	0.502	0.489	0.0594		0.0808	0.0793	1.12	1.07	0.213
PC-14	0.86	0.871	0.878	0.854	0.922	0.921	0.936	0.845	0.663	0.747	0.744	0.644	0.625	0.988	1.04	0.959	0.767	0.909	0.994	1.09
NCI-H2170	0.801	0.585	0.824	0.834					0.742		0.774	0.687	0.663	0.671	0.338	0.596	0.523	0.904		0.667
NCI-H727	0.571	0.696	0.49	0.538	0.306	0.245	0.222	0.251	1.19	1.25	1.04	0.744	1.07	0.509	0.494	0.407	0.309	0.526	0.226	0.43
NCI-H1355	0.784	0.754	0.822	0.831	0.788	0.73	0.792	0.812	0.635	0.605	0.647	0.523	0.5	0.952	0.861	1.01	0.873	0.919	0.892	1.13
NCI-H1975	0.653	0.526	0.602	0.445	1.03	0.865	0.975	0.6	0.689	0.608	0.66	0.652	0.46	1	0.959	1.05	0.878	0.621	0.819	1.12
LK-2	1.05	0.968	0.955	0.822	0.74	0.462	0.523	0.274	0.33	0.253	0.335	0.242	0.204	0.797	0.648	0.823	0.536	1.17	0.676	0.643
NCI-H661	0.736	0.781	0.653	0.5	0.545	0.542	0.543	0.451	0.721	0.918	0.748	0.703	0.565					0.437	0.518	
NCI-H358	0.789	0.887	0.913	0.444	0.613	0.634	0.617	0.445	0.726	0.942	0.513	0.711	0.267					0.741	0.609	

Cell Line	relative viability (Seliciclib + Alpelisib; first compound 0.08 µM)	relative viability (Seliciclib + Alpelisib; first compound 0.253 µM)	relative viability (Seliciclib + Alpelisib; first compound 0.8 µM)	relative viability (Seliciclib + Alpelisib; first compound 8 µM)	relative viability (Seliciclib + Linsitinib; first compound 0.08 µM)	relative viability (Seliciclib + Linsitinib; first compound 0.253 µM)	relative viability (Seliciclib + Linsitinib; first compound 0.8 µM)	relative viability (Seliciclib + Linsitinib; first compound 8 µM)	relative viability (Seliciclib + Vorinostat; first compound 0.08 µM)	relative viability (Seliciclib + Vorinostat; first compound 0.253 µM)	relative viability (Seliciclib + Vorinostat; first compound 0.8 µM)	relative viability (Seliciclib + Vorinostat; first compound 2.53 µM)	relative viability (Seliciclib + Vorinostat; first compound 8 µM)	relative viability (Seliciclib + Navitoclax; first compound 0.08 µM)	relative viability (Seliciclib + Navitoclax; first compound 0.253 µM)	relative viability (Seliciclib + Navitoclax; first compound 0.8 µM)	relative viability (Seliciclib + Navitoclax; first compound 8 µM)	relative viability (Seliciclib + Alpelisib; first compound 2.53 µM)	relative viability (Seliciclib + Linsitinib; first compound 2.53 µM)	relative viability (Seliciclib + Navitoclax; first compound 2.53 µM)
HCC-366	0.367	0.302	0.342	0.371	0.538	0.448	0.557	0.36	0.317	0.467	0.377	0.212	0.164	1.01	0.699	1.03	0.947	0.344	0.836	1.17
HOP-62	1.03	0.811	0.942	0.829	1.04	0.935	0.891	0.879	0.65	0.623	0.732	0.479	0.437	1.01	1.1	0.909	0.926	1.05	0.834	1.12
NCI-H1648									0.519	0.909	0.417	0.365	0.373							
SW 1573	0.653	0.805	0.786	0.567	0.768	0.792	0.904	0.668	0.943	0.687	0.708	0.632	0.346	1.09	0.732	0.901	0.655	0.712	0.743	0.86
LU99A	0.491	0.518	0.452	0.416	0.565	0.466	0.474	0.494	0.538	0.383	0.458	0.383	0.455	0.9	0.671	0.69	0.711	0.359	0.497	0.759
NCI-H647	0.952	1.1	0.978	0.618	1.22	1.12	1.11	0.718	0.615	0.268	0.639	0.299	0.128	1.02	1	1.06	0.878	1.15	1.19	1.12
A-427	1.05	1.16	1.12	0.927	1.08	1.11	1.2	1.13	0.856	0.815	0.877	0.823	0.824	1.01	0.95	0.809	0.95	1.08	1.15	0.946
EBC-1	0.901	0.88	0.895	0.616	0.911	0.836	0.942	0.794						0.447	0.417	0.402	0.231	0.828	0.88	0.333
SW 900									0.53	0.701	0.484	0.467	0.35							
ABC-1	0.819	0.888	0.775	0.931	0.919	0.806	0.918	1.04	0.996	0.953	1.29		0.774					0.964	0.957	
NCI-H1792	0.765	0.725	0.719	0.633	0.459	0.568	0.521	0.477						0.616	0.583	0.663	0.609	0.682	0.678	0.443
NCI-H1563	0.952	0.872	0.954	0.882	1.15	0.925	1.11	1.12										0.927	1.21	
NCI-H1299	1.02	1.17	1.1	0.986	0.981	1.14	1.09	1						0.996	1.14	1.02	1	1.08	0.956	1.03
ChaGo-K-1									0.758	0.628	0.743	0.654	0.433	1.03	0.567	0.949	0.431			0.755
NCI-H522									0.854	0.84	1.01	0.881	0.744							
A549	0.763	0.67	0.696	0.458	0.599	0.473	0.434	0.446						1.08	1.06	1.21	0.925	0.656	0.651	1.19
NCI-H650	1.05	1.02	1.35	0.872	0.833	0.925	1.17	0.897	0.403	0.36	0.638	0.3	0.341							
LCLC-103H	0.992	0.957	0.869	0.906	1.17	0.973	1.02	0.849	0.753	0.764	0.733	0.448	0.68					1.05	1.02	
NCI-H1650									0.474	0.511	0.558	0.526	0.326	1.12	1.01	1.07	1.08			1.21
Calu-6	0.942	0.993	1.04	0.809	1.05	0.996	0.95	0.899						0.796	0.933	0.939	0.825	1.01	1.01	0.895

From the supplement of paper PMC10307832
